Assay results from patent US20120142627A1, “MONOPHOSPHATE PRODRUGS OF DAPD AND ANALOGS THEREOF” (Emory University, priority 2010, published 2012).
Read-outs that look alike come from different tables or passages of the source.

Columns and labels:
PBM cells = experiment: Intracellular metabolites (DXG-TP, DAPD-TP) in PBM cells; format: in vitro ADME, human; conditions: for DXG-TP levels: PBM cells incubated for 4 h at 50 µM, mean and S.D.; for intracellular DXG-TP detected (in words) / intracellular phosphorylated DAPD / DAPD-TP detected (in words): PBM cells, 50 μM, 4 h, 37° C.
Experimental: Reexamination of the intracellular metabolism of DAPD, which contains a 6-amino group, at 50 μM for 4 h in PBM cells at 37° C. resulted the detection of high levels of DXG-TP in addition to DXG and DXG-MP.
PBM cells were incubated with the corresponding compounds for 4 h […]. The data plotted represent the mean value and S.D. of experiments with PBM cells.

human PBM cells = experiment: Cytotoxicity in human PBM cells; format: cell-based
Experimental: v) Cellular Toxicity Assays: 6-Substituted-2-amino purine dioxolane monophosphate prodrugs were evaluated for their potential toxic effects on P4/R5 cells, MT-2 cells and uninfected PHA-stimulated human PBM cell. Log-phase P4/R5, MT-2, and PHA-stimulated human PBM cells were seeded at 5×10^3 to 5×10^4 cells/well in 96-well cell culture plates containing 10-fold serial dilutions of the test drug. The cultures were incubated for 2-4 days, after which 3-(4,5-dimethylthiazol-2-yl)-2,5-diphenyltetrazolium bromide (MIT) dye solution (Promega, Madison, Wis.) were added to each well and incubated overnight. The reaction was stopped with stop solubilization solution (Promega, Madison, Wis.) and plates were read at a wavelength of 570 nm.

[1] = tested on: CEM (human lymphoblastoid) cells; experiment: Cytotoxicity in CEM cells; conditions: Lymphoblastoid cell, read-out: CEM IC50
[2] = tested on: PHA-stimulated human PBMCs and CEM cells; conditions: cited from earlier work
Vero cells = experiment: Cytotoxicity in Vero cells; conditions: Chlorocebus sabaeus, read-out: Vero IC50
HIV-1LAI = experiment: Anti-HIV (in PBM cells) assay; format: cell-based; conditions: Human immunodeficiency virus 1, PBMC; for EC50: read-out: HIV EC50; for EC90: read-out: HIV EC90
Experimental: Stock solutions (20-40 mM) of the compounds were prepared in sterile DMSO and then diluted to the desired concentration in growth medium. Cells were infected with the prototype HIV-1LAI at a multiplicity of infection of 0.01. Virus obtained from the cell supernatant was quantified on day 6 after infection by a reverse transcriptase assay using (rA)n.(dT)12-18 as template-primer. The DMSO present in the diluted solution (<0.1%) had no effect on the virus yield. AZT was included as positive control.

adenosine deaminase = experiment: Adenosine deaminase assay; format: biochemical; conditions: 7 minutes, 0.002 units of enzyme, 50 μM, pH 7.4, 25° C.
Experimental: To determine the propensity for deamination of the 6-substituted-2-amino purine dioxolane monophosphate prodrugs by adenosine deaminase, nucleoside compounds were incubated with the commercially available purified enzyme, and the reaction was followed spectrophotometrically. Reaction conditions were 50 mM potassium phosphate, pH 7.4, with 50 μM nucleoside analog in 0.5 mL at 25° C. Reaction time was 7 minutes with 0.002 units of enzyme and 120 minutes with 0.2 units of enzyme. (The unit definition of adenosine deaminase is one unit will deaminate 1.0 μmol of adenosine to inosine per minute at pH 7.5 at 25° C.) Deoxyadenosine was the positive control which was 59% deaminated under the given conditions in 7 minutes with 0.002 units of enzyme. Deoxyguanosine was the negative control. Optical density was measured at 265 nm or 285 nm. The difference in optical density between the beginning and the end of the experiment was divided by the extinction coefficient then multiplied by the volume of the reaction to determine the number of mols of substrate transformed into product. Mols of product were divided by mols of substrate equivalent to a 100% complete reaction then multiplied by 100 to obtain percent deamination. The limit of detection was 0.001 optical density units.

DXG-TP levels (PBM cells)	SMILES	IC50 [1]	intracellular DXG-TP detected (in words) (PBM cells)	intracellular phosphorylated DAPD / DAPD-TP detected (in words) (PBM cells)	IC50 (Vero cells)	also measured
0.10 pmol/10^6 cells	Nc1nc(Cl)c2ncn(C3COC(CO)O3)c2n1 (centres unmarked) [6-Cl-DXG]					
0.55 pmol/10^6 cells	COc1nc(N)nc2c1ncn2C1COC(CO)O1 (centres unmarked) [6-OMe-DXG]					
	Nc1nc(N)c2ncn([C@H]3CO[C@@H](CO)O3)c2n1 [DAPD]	> 100 µM	high levels	no phosphorylated forms of DAPD were detected	> 100 µM	IC50 (human PBM cells; Homo sapiens, PBMC, cytotoxicity): > 100 µM; DAPD level in PBMCs relative to CEM cells [2]: 27 fold; phosphorylation of DAPD to mono-, di-, or triphosphate forms ([2]; either cell type): No phosphorylation; EC50 (HIV-1LAI; human PBM cells): 1 µM; EC90 (HIV-1LAI; human PBM cells): 6.5 µM
1.75 ± 0.07 pmol/10^6 cells	Nc1nc2c(ncn2[C@H]2CO[C@@H](CO)O2)c(=O)[nH]1 [DXG, (−)-β-D-dioxolane guanine]					
	Nc1ncnc2c1ncn2[C@H]1C[C@H](O)[C@@H](CO)O1 [Deoxyadenosine]					percent deaminated by adenosine deaminase (adenosine deaminase): 59%
	CCOC(=O)[C@H](C)NP(=O)(OC[C@@H]1OC[C@H](n2cnc3c(N)nc(N)nc32)O1)Oc1ccccc1 (some centres unmarked) [RS-864]	> 100 µM	low levels	very high levels	> 100 µM	PBM IC50 (printed as % @ 100 μM) (human PBM cells; @ 100 μM): 66.5%; EC50 (HIV-1LAI): 0.24 µM; EC90 (HIV-1LAI): 1.3 µM
